Values quoted from earlier work in US20060258708A1, “Method for treating Parkinson's disease and other neurological diseases” (priority 2005, published 2006).

Tests used:
[1] = test system: tumor necrosis factor alpha production by stimulated monocytes
[2] = humans
[3] = racemic thalidomide, animals

maximal blood concentration ([2]; 100 to 200 mg ingested): 0.9 to 1.5 mg/L
time at which maximal blood concentration is attained ([2]; 100 to 200 mg ingested): 4 to 6 h
oral absorption ([2]; orally administered): poorly absorbed
Compound: O=C1CCC(N2C(=O)c3ccccc3C2=O)C(=O)N1 (racemic) [Thalidomide, N-phthalidoglutarimide]
effect on tumor necrosis factor alpha production [1]: inhibit
toxicity in a series of animal studies [3]: has not been toxic
